Results on eleven molecules are retold here after article PMC8161373, “New Cardenolides from Biotransformation of Gitoxigenin by the Endophytic Fungus Alternaria eureka 1E1BL1: Characterization and Cytotoxic Activities” (Molecules, 2021).

In data set [1] the test system is Mia PaCa-2 pancreatic cancer cell line. Description: MTT cell viability assay, MIA PaCa-2. The note with it: Homo sapiens, 48 h treatment, n = 3. It is filed as cell-based. Here is the method:
(§1) Cytotoxicity of the metabolites and substrate were evaluated in various cancer cell lines (pancreatic: PANC-1, MIA PaCa-2; prostate: DU 145 and lung: A549) and two healthy cell lines (lung: MRC-5 and kidney: HEK-293) by MTT cell viability assay (Table 3).
(§2) To see cytotoxic effects of the obtained metabolites, a standard MTT (3-(4,5-dimethylthiazol-2-yl)-2,5-diphenyltetrazolium bromide) cell viability assay was performed on human cancer cell lines PANC-1 (pancreatic, ATCC® CRL-1469™), MIA PaCa-2 (pancreatic, ATCC® CRL-1420™), DU 145 (prostate, ATCC® HTB-81™) and A549 (lung, ATCC® CCL-185™) and two healthy cell lines MRC-5 (lung, ATCC® CCL-171™) and HEK-293 (kidney, ATCC® CRL-1573™) according to manufacturer’s instructions (M2128, Sigma-Aldrich®). For this purpose, cells at 80–90% confluency were seeded to 96-well plates as 5-10x10^3 cells/well in Eagle Minimal Essential Medium (EMEM) or Dulbecco Modified Eagle Medium (DMEM); supplemented with 10% FBS and 1% L-glutamine depending on the cell type and incubated in a humidified incubator at 37 °C with 5% CO2 atmosphere for 24 h. After cell adhesion, gitoxigenin and the metabolites were applied to the cells in triplicate with concentrations ranging between 0.001 and 10 µM. After 48 h exposure to certain concentrations of the compounds, medium was replaced with fresh one containing 10% MTT and plates were incubated for 3 h in the dark for the conversion of tetrazolium salts to formazan crystals by mitochondrial metabolism of viable cells. After incubation, formazan crystals were dissolved in DMSO and absorbance of each well were measured at 570 nm via microplate reader (Synergy™ HTX- BioTek, Winooski, VT, USA). Doxorubicin (10 nM, 1 µM and 4 µM) was used as positive control, whereas oleandrin (1 nM, 10 nM and 100 nM) was the second positive control as a potent cardenolide.
(§3) All compounds were dissolved in DMSO (Sigma Aldrich, St. Louis, MO, USA) and the final DMSO concentration applied to cells was 0.02% (v/v), which is non-toxic to cells. The IC50 values of the compounds were calculated by the normalization of optical densities (OD) to negative control DMSO (0.02%, v/v).
On the technique in general: Tetrazolium assays rely on reduction of a dye to a coloured formazan, in cell work by metabolically active cells.

Data set [2] has as its system MRC-5 human lung fibroblast cell line. Description: MTT cell viability assay, MRC-5 (healthy). The format is cell-based. Particulars: MRC5, 48 h treatment, n = 3. Here is the method: as §1, §2, §3
The test system of data set [3] is HEK-293 human embryonic kidney cell line. In words: MTT cell viability assay, HEK-293 (healthy). The format is cell-based. The note with it: for IC50: Homo sapiens, HEK293, healthy cell line, 48 h treatment, MTT, n = 3. Here is the method:
as §1, §2, §3

In data set [4] the test system is DU 145 human prostate cancer cell line. Description: MTT cell viability assay, DU 145. The format is cell-based. The note with it: 48 h treatment, n = 3. As for the experimental part:
as §1, §2, §3

Data set [5] relates to A549 human lung cancer cell line. In words: MTT cell viability assay, A549. The format is cell-based. Particulars: 48 h treatment, n = 3. Here is the method: as §1, §2, §3
The subject of data set [6] is PANC-1 human pancreatic cancer cell line. Description: MTT cell viability assay, PANC-1. It is filed as cell-based. The note with it: 48 h treatment, n = 3. Here is the method:
as §1, §2, §3

Data set [7] deals with human nasopharynx carcinoma. Also on record: method as in PMID 5014314. Particulars: cited from earlier work.
The test system of data set [8] is UACC-62 (melanoma). Also on record: method as in PMID 14531018. The note with it: cited from earlier work.
In data set [9] the test system is HeLa cells. Also on record: method as in PMID 12054363. The note with it: homogeneous plate-reader assay; read-out: EC50 anticancer effect against HeLa cells; cited from earlier work.
Data set [10] has as its system TK-10 (renal adenocarcinoma). Also on record: method as in PMID 14531018. Particulars: cited from earlier work.
Data set [11] concerns A549, DU 145, PANC-1, MIA PaCa-2 cell lines. In words: MTT cell viability assay, four cancer cell lines together. It is filed as cell-based. Particulars: Homo sapiens; range over four cancer cell lines; read-out: IC50 values ranging over A549, DU 145, PANC-1, MIA PaCa-2 cell lines. As for the experimental part:
as §1
To see cytotoxic effects of the obtained metabolites, a standard MTT (3-(4,5-dimethylthiazol-2-yl)-2,5-diphenyltetrazolium bromide) cell viability assay was performed on human cancer cell lines PANC-1 (pancreatic, ATCC® CRL-1469™), MIA PaCa-2 (pancreatic, ATCC® CRL-1420™), DU 145 (prostate, ATCC® HTB-81™) and A549 (lung, ATCC® CCL-185™) and two healthy cell lines MRC-5 (lung, ATCC® CCL-171™) and HEK-293 (kidney, ATCC® CRL-1573™) according to manufacturer’s instructions (M2128, Sigma-Aldrich®). […] After incubation, formazan crystals were dissolved in DMSO and absorbance of each well were measured at 570 nm via microplate reader (Synergy™ HTX- BioTek, Winooski, VT, USA). […]
as §3

In data set [12] the test system is HeLa cells. Set-up: method as in PMID 5589524. Particulars: cited from earlier work.
In data set [13] the test system is MCF-7 (breast adenocarcinoma). Set-up: method as in PMID 14531018. The note with it: cited from earlier work.
In data set [14] the test system is dengue virus. Set-up: method as in PMID 22155902. The note with it: immunofluorescence screen, hit criteria ≥40% inhibition; cited from earlier work.
For data set [15], the system named is infectious virus production (COVID-19). Set-up: method as in doi:10.1101/2020.07.15.203489. The note with it: in vitro, cited from earlier work.

In brackets after ≈: the same amount, converted by molar mass. Read-outs that look alike come from different tables or passages of the source.

The IC50 is the concentration needed to halve the response being measured. For `COC1(OC)CC[C@]2(C)C3CC[C@]4(C)[C@@H](C5=CC(=O)OC5)[C@@H](O)C[C@]4(O)C3C(O)C[C@@H]2C1` (stereo partly drawn) [Compound 4, 4-((5R,10S,13R,14S,16S,17R)-7,14,16-Trihydroxy-3,3-dimethoxy-10,13-dimethylhexadecahydro-1H-cyclopenta[a]phenanthren-17-yl)furan-2(5H)-one], the IC50 in data set [1], in [2], in [3], in data set [4], in [5] and in data set [6] was > 10 µM each time.

On to `C[C@]12CC[C@@H](O)C[C@H]1CCC1C2CC[C@]2(C)[C@@H](C3=CC(=O)OC3)[C@@H](O)C[C@]12O` (stereo partly drawn) [Compound 5, 4-((3R,5R,10S,13R,14S,16S,17R)-3,14,16-Trihydroxy-10,13-dimethylhexadecahydro-1H-cyclopenta[a]phenanthren-17-yl)furan-2(5H)-one], for which the IC50 in data set [1], in data set [2], in data set [3], in data set [4], in [5] and in data set [6] was > 10 µM in each case.

With `C[C@]12CCC(=O)C[C@H]1CCC1C2CC(O)[C@]2(C)[C@@H](C3=CC(=O)OC3)[C@@H](O)C[C@]12O` (stereo partly drawn) [Compound 7, 4-((5R,10S,13S,14S,16S,17R)-12,14,16-Trihydroxy-10,13-dimethyl-3-oxohexadecahydro-1H-cyclopenta[a]phenanthren-17-yl)furan-2(5H)-one], the IC50 in data set [1] is > 10 µM; in [2], > 10 µM; in [3], > 10 µM; in data set [4], > 10 µM; in data set [5], > 10 µM; in [6], 6.24 µM.

Turning to `C[C@]12CC[C@@H](O)C[C@H]1CCC1C2CC(O)[C@]2(C)[C@@H](C3=CC(=O)OC3)[C@@H](O)C[C@]12O` (stereo partly drawn) [Compound 8, 4-((3R,5R,10S,13S,14S,16S,17R)-3,12,14,16-Tetrahydroxy-10,13-dimethylhexadecahydro-1H-cyclopenta[a]phenanthren-17-yl)furan-2(5H)-one], the IC50 in data set [1] was 3.4 µM; in data set [2], 9.35 µM; in [3], > 10 µM; in data set [4], > 10 µM; in data set [5], 8.25 µM; in data set [6] it was 1.95 µM. Moreover, in data set [3] (up to concentration of 10 µM), the “toxicity on healthy cell line HEK-293” value is listed as “without causing toxicity”.

In general, EC50 refers to the concentration giving half of the maximal effect. Take `C[C@]12CC[C@H](O)C[C@H]1CCC1C2CC[C@]2(C)[C@@H](C3=CC(=O)OC3)[C@@H](O)C[C@]12O` (stereo partly drawn) [Gitoxigenin, 4-((3S,5R,10S,13R,14S,16S,17R)-3,14,16-Trihydroxy-10,13-dimethylhexadecahydro-1H-cyclopenta[a]phenanthren-17-yl) furan-2(5H)-one]: the “ED50 in vitro inhibitory activity against human nasopharynx carcinoma” value in data set [7] is on record as 2.3 µg/mL (≈ 5.89 µM). In addition, the IC50 in data set [1] is 3.1 µM; in data set [2], 0.815 µM; in data set [8], 2.83 ± 0.17 µM; in data set [3] it was 7.6 µM; in data set [4] it was 4.08 µM; in data set [5], 2.19 µM. Moreover, the IC50 in data set [10] was 0.415 ± 0.03 µM; in [11], 1.53 to 4.08 µM; in data set [13], 1.8 ± 0.32 µM; in data set [6] it was 1.53 µM. Also, the EC50 in [9] is 2.1 µM. Further, the “growth inhibitory effect on HeLa cells” value in [12] is 2.25 µg/mL. Also, the “inhibition of dengue virus” value in data set [14] is recorded as 49.01%.

`CO[C@H]1C[C@H](O[C@H]2CC[C@@]3(C)[C@H](CC[C@@H]4[C@@H]3CC[C@]3(C)[C@@H](C5=CC(=O)OC5)[C@@H](OC(C)=O)C[C@]43O)C2)O[C@@H](C)[C@@H]1O` [Oleandrin, reference compound]: the IC50 in data set [1] was found to be 0.035 µM; in [2] it was 0.0173 µM; in data set [3] it was 0.073 µM; in data set [4], 0.021 µM; in data set [5], 0.0426 µM; in data set [6] it was 0.0387 µM. Moreover, the “reduction in infectious virus production” value in data set [15] (0.05 µg/mL) is listed as 78 fold; in data set [15] (0.1 µg/mL), 100 fold.

On to `COc1cccc2c1C(=O)c1c(O)c3c(c(O)c1C2=O)C[C@@](O)(C(=O)CO)C[C@@H]3O[C@H]1C[C@H](N)[C@H](O)[C@H](C)O1` [Doxorubicin, reference compound], for which the IC50 is 0.59 µM in [1]; 0.865 µM in data set [2]; 0.587 µM in data set [3]; 0.19 µM in data set [4]; 0.62 µM in data set [5]; > 10 µM in [6].

For the molecule `C[C@]12CC[C@@H](O)C[C@H]1CC(O)C1C2CC[C@]2(C)[C@@H](C3=CC(=O)OC3)[C@@H](O)C[C@]12O` (stereo partly drawn) [Compound 6, 4-((3R,5S,10S,13R,14S,16S,17R)-3,7,14,16-Tetrahydroxy-10,13-dimethylhexadecahydro-1H-cyclopenta[a]phenanthren-17-yl)furan-2(5H)-one], the IC50 in [1], in [2], in data set [3], in data set [4], in data set [5] and in data set [6] was > 10 µM each time.

`C[C@]12CCC(=O)C[C@H]1CC(O)C1C2CC[C@]2(C)[C@@H](C3=CC(=O)OC3)[C@@H](O)C[C@]12O` (stereo partly drawn) [Compound 1, 4-((5R,10S,13R,14S,16S,17R)-7,14,16-Trihydroxy-10,13-dimethyl-3-oxohexadecahydro-1H-cyclopenta[a]phenanthren-17-yl)furan-2(5H)-one]: the IC50 in data set [1], in data set [2], in data set [3], in data set [4], in [5] and in data set [6] was > 10 µM each time.

`C[C@]12CCC(=O)C[C@H]1CC(O)C1C2CC(O)[C@]2(C)[C@@H](C3=CC(=O)OC3)[C@@H](O)C[C@]12O` (stereo partly drawn) [Compound 3, 4-((5R,10S,13S,14S,16S,17R)-7,12,14,16-Tetrahydroxy-10,13-dimethyl-3-oxohexadecahydro-1H-cyclopenta[a]phenanthren-17-yl)furan-2(5H)-one]: the IC50 in [1], in data set [2], in data set [3], in data set [4], in data set [5] and in [6] was > 10 µM in each case.

In the case of `C[C@]12CCC(=O)C[C@H]1CCC1C2CC[C@]2(C)[C@@H](C3=CC(=O)OC3)[C@@H](O)C[C@]12O` (stereo partly drawn) [Compound 2, 4-((5R,10S,13R,14S,16S,17R)-14,16-Dihydroxy-10,13-dimethyl-3-oxohexadecahydro-1H-cyclopenta[a]phenanthren-17-yl)furan-2(5H)-one], the IC50 in [1], in data set [2], in data set [3], in data set [4], in [5] and in data set [6] was > 10 µM in each case.
